# Laboratory results as given in US20160320368A1, “METHOD AND APPARATUS FOR PREDICTING EFFECTIVE DOSE OR SENSITIVITY OF 5-HYDROXY-1H-IMIDAZOLE-4-CARBOXAMIDE, METHOD FOR DETERMINING AMOUNT OF XANTHOSINE MONOPHOSPHATE, AND TREATMENT AGENT AND METHOD FOR TREATING MYELODYSPLASTIC SYNDROME” (FUJIFILM Corporation, priority 2014, published 2016).
# Columns and labels:
# XMP in bone marrow cells = XMP in bone marrow cells of mice after oral administration; format: in vivo, female mice (BALB/cAJcl); conditions: 100 mg/kg oral, non-treated = 100%
# Protocol: (§1) A ¾ hydrate of Compound A was used as a test compound.
# 0.5% MC or 0.5% MC of the test compound (100 mg/kg in terms of Compound A) was orally administered to female mice (BALB/cAJcl).
# Right and left femurs of animals were collected under anesthesia by isoflurane inhalation at 1, 4, 8 or 24 hours post-dose, followed by cutting bone ends and centrifuging at 4° C. and 3000 rpm for 1 min to recover bone marrow cells. The recovered bone marrow cells were suspended in 1 mL of PBS, and the number of cells was counted. After centrifugation at 4° C. and 1000×g for 5 min, the supernatant was removed, and 1000 μL of methanol was added to each tube, followed by stirring. Thereafter, 500 μL of ultrapure water was added thereto, followed by further stirring. 600 μL of the reaction solution was divided into each of two tubes, and 400 μL of chloroform was added to each tube. The reaction solution was stirred and then centrifuged at 4° C. and 10000×g for 15 min. 400 μL of the aqueous phase was recovered and added to an ultrafiltration tube, followed by centrifugation at 12° C. and 9200×g for 2 hours. The filtrates were combined and then dried under reduced pressure at 40° C. for 2 hours by using a centrifugal evaporator. After drying, the resulting product was stored in a freezer at −80° C.
# The samples obtained in (2-1) and (2-2) were returned to room temperature, and 40 μL of ultrapure water was added to the hemolysis sample and 150 μL of ultrapure water was added to the bone marrow sample. The mixture was stirred and then centrifuged at 4° C. and 21500×g for 5 min. For the hemolysis sample, 35 μL of the supernatant was transferred to a vial. For the bone marrow sample, 140 μL of the supernatant was transferred to a vial. After storage at 4° C., XMP in samples was determined in the LC-MS/MS determination instrument, LC conditions and MS/MS conditions described in Example 3 (3).
# (§2) Amounts of XMP (%) were calculated assuming that amounts of XMP in a non-Compound A treated group are defined as 100%.
# [1] = PK test of Compound A, single oral administration, plasma concentration; format: in vivo, female mice (BALB/cAJcl); conditions: from 10 mg/kg up to 80 mg/kg
# Protocol: Non-fasting female mice (BALB/cAJcl) were given a single oral administration of the test compound (10 mg/kg, 40 mg/kg, 80 mg/kg and 160 mg/kg in terms of Compound A).
# V1/F, K01, K10, K12 and K21, pharmacokinetic parameters of the two-compartment model, were calculated from the plasma concentration course of Compound A when Compound A was given as a single oral administration. These parameters were used to predict the plasma concentration course of Compound A upon repeated administration in a variety of dosage regimen. […] The parameter of 160 mg/kg was used to carry out the prediction for 120 mg/kg and 240 mg/kg. […] PK parameters (Cmax, Time above IC50 and AUC0-48) were plotted on the X axis, and the inhibition rate of tumor volume was plotted on the Y axis.
# GTP in whole blood = GTP in whole blood (Example 8); format: cell-based, human; conditions: 37° C., 8 hours, non-treated = 100%
# Protocol: as §1
# (§3) 450 μL of the blood collected from healthy individuals by heparinized blood collection was added to each tube, and 50 μL of a PBS solution of the test compound (0 μg/mL, 1 μg/mL, 10 μg/mL, or 100 μg/mL in terms of Compound A) for each concentration was added to each tube. The reaction mixture was stirred in an incubator at 37° C. for 8 hours.
# (§4) 400 μL of methanol was added to 100 μL of the blood sample obtained in (1). After stirring, 400 μL of chloroform was added, followed by further stirring. 120 μL of ultrapure water was added thereto, followed by stirring and then centrifugation at 4° C. and 10000×g for 15 min. 400 μL of the aqueous phase was recovered and added to an ultrafiltration tube, followed by centrifugation at 12° C. and 9200×g for 2 hours. The filtrate was dried under reduced pressure at 40° C. for 2 hours by using a centrifugal evaporator. After drying, the resulting product was stored in a freezer at −80° C.
# (§5) The samples obtained in (2) were returned to room temperature and 40 μL of ultrapure water was added to each sample. The mixture was stirred and centrifuged at 4° C. and 21500×g for 5 min. 35 μL of the supernatant was transferred to a vial. After storage at 4° C., XMP, GMP and GTP in the samples were determined in the LC-MS/MS determination instrument and LC conditions described in Example 3 (3), and MS/MS conditions shown in Table 15.
# (§6) Amounts of XMP, GMP and GTP (%) were calculated assuming that the XMP, GMP and GTP values of a non-Compound A treated group (peak area value) are defined as 100%.
# XMP in whole blood [2] = experiment: XMP in whole blood (Example 5); format: cell-based, human; conditions: 37° C., 8 hours, non-treated = 100%
# Protocol: A ¾ hydrate of Compound A was used s a test compound.
# as §3, with “from two” for “from”, “collection (Analyte A and Analyte B)” for “collection”, “μg/mL,” for “μg/mL, 1 μg/mL,”, “μg/mL, 30 μg/mL, 100 μg/mL, 300 μg/mL,” for “μg/mL,”, “1000” for “100”
# as §4
# The samples obtained in (2-1) and (2-2) were returned to room temperature and 40 μL of ultrapure water was added to each sample. The mixture was stirred and centrifuged at 4° C. and 21500×g for 5 min. 35 μL of the supernatant was transferred to a vial. After storage at 4° C., XMP in samples was determined in the LC-MS/MS determination instrument, LC conditions and MS/MS conditions described in Example 3 (3).
# as §2
# GMP in whole blood = GMP in whole blood (Example 8); format: cell-based, human; conditions: 37° C., 8 hours, non-treated = 100%
# Protocol: as §1, §3, §4, §5, §6
# XMP in whole blood [3] = experiment: XMP in whole blood (Example 8); format: cell-based, human; conditions: 37° C., 8 hours, non-treated = 100%
# Protocol: as §1, §3, §4, §5, §6
smiles,measurement,setting,value
"NC(=O)c1nc[nH]c1O [Compound A, 5-Hydroxy-1H-imidazole-4-carboxamide]",Amount of XMP (%) Bone marrow cell,XMP in bone marrow cells; 1 hr post-dose,8.7%
same,Amount of XMP (%) Bone marrow cell,XMP in bone marrow cells; 4 hr post-dose,16.5%
same,Amount of XMP (%) Bone marrow cell,XMP in bone marrow cells; 8 hr post-dose,25.9%
same,Amount of XMP (%) Bone marrow cell,XMP in bone marrow cells; 24 hr post-dose,82.7%
same,linearity of plasma pharmacokinetics,[1],linearity was recognized
same,Amount of each compound in whole blood (%) GTP,GTP in whole blood; Compound A 1 μg/mL,89%
same,Amount of each compound in whole blood (%) GTP,GTP in whole blood; Compound A 10 μg/mL,86%
same,Amount of each compound in whole blood (%) GTP,GTP in whole blood; Compound A 100 μg/mL,79%
same,Amount of XMP (%) Analyte A Whole blood,XMP in whole blood [2]; Compound A 1 μg/mL,57%
same,Amount of XMP (%) Analyte B Whole blood,XMP in whole blood [2]; Compound A 1 μg/mL,44%
same,Amount of XMP (%) Analyte A Whole blood,XMP in whole blood [2]; Compound A 3 μg/mL,53%
same,Amount of XMP (%) Analyte B Whole blood,XMP in whole blood [2]; Compound A 3 μg/mL,27%
same,Amount of XMP (%) Analyte A Whole blood,XMP in whole blood [2]; Compound A 10 μg/mL,47%
same,Amount of XMP (%) Analyte B Whole blood,XMP in whole blood [2]; Compound A 10 μg/mL,15%
same,Amount of XMP (%) Analyte A Whole blood,XMP in whole blood [2]; Compound A 30 μg/mL,26%
same,Amount of XMP (%) Analyte B Whole blood,XMP in whole blood [2]; Compound A 30 μg/mL,11%
same,Amount of XMP (%) Analyte A Whole blood,XMP in whole blood [2]; Compound A 100 μg/mL,15%
same,Amount of XMP (%) Analyte B Whole blood,XMP in whole blood [2]; Compound A 100 μg/mL,9%
same,Amount of each compound in whole blood (%) GMP,GMP in whole blood; Compound A 1 μg/mL,85%
same,Amount of each compound in whole blood (%) GMP,GMP in whole blood; Compound A 10 μg/mL,85%
same,Amount of each compound in whole blood (%) GMP,GMP in whole blood; Compound A 100 μg/mL,91%
same,Amount of each compound in whole blood (%) XMP,XMP in whole blood [3]; Compound A 1 μg/mL,55%
same,Amount of each compound in whole blood (%) XMP,XMP in whole blood [3]; Compound A 10 μg/mL,30%
same,Amount of each compound in whole blood (%) XMP,XMP in whole blood [3]; Compound A 100 μg/mL,13%
